According to publication PMC11219871, “Epigenetic-based differentiation therapy for Acute Myeloid Leukemia” (Nature Communications, 2024):
pIC50: −log10 of the molar value. Several values for one entry are separate records, joined by “and”; a condition that tells them apart may be missing. Equal values may be shown once. Read-outs that look alike come from different tables or passages of the source. Blank lines part the entries; values can stand above or below the compound they belong to.

Experiments:
HDAC1 = HDAC1 (Homo sapiens, UniProt Q13547); experiment: HDAC enzymatic assay, fluorescence-labeled substrate; assay type: biochemical; conditions: read-out: HDAC1 IC50
Sequence of HDAC1 (Q13547 whole entry): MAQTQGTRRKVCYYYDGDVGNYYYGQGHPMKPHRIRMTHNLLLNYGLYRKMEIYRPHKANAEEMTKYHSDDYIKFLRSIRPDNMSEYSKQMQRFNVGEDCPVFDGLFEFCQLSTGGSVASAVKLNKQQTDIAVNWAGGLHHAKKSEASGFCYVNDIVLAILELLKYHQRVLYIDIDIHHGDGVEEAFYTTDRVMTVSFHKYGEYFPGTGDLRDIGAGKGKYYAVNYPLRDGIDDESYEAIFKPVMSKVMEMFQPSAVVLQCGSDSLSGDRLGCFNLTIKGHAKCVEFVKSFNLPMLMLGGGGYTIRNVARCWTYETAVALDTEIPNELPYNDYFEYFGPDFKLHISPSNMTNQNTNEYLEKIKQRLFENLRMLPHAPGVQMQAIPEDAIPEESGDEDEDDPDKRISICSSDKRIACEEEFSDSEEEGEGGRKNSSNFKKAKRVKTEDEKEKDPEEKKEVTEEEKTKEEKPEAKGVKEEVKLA

HL-60 [1] = experiment: Differentiation-apoptosis assay, CD11b / annexin-V / Sytox Green / myeloid markers flow cytometry; assay type: cell-based, human; parameters: CD11b levels: unit not given here
Protocol: Next, the cells were washed twice with phosphate-buffered saline (PBS) and resuspended in 1X Binding Buffer at a concentration of 1 × 10^6 cells/mL. […] Finally, after the addition of 400 µL of 1X Binding Buffer to each tube, samples were collected on a BD FACSCanto flow cytometer (Becton Dickinson, San Jose, CA, USA) and analyzed using FlowJo software.
Then, 1 million cells (volume of 250 µL) were added and incubated for 30 min at room temperature in darkness. After 10 min incubation at room temperature with 2 mL of FACSLysing 1X, cells were centrifuged at 540 g for 5 min and washed twice with FACSBuffer. Finally, after centrifugation at 540 g for 5 min cells were resuspended in FACSBuffer.

HL-60 [2] = experiment: Cell proliferation assay: GI50; assay type: cell-based, human
Protocol: (§1) Cell proliferation was analyzed using the CellTiter 96 Aqueous One Solution Cell Proliferation Assay (Promega, Madison, WI). This is a colorimetric method for determining the number of viable cells in proliferation. For the assay, suspension cells were cultured in triplicate at a density of 1 × 10^6 cells/mL in 96-well plates (100.000 cells/well, 100 µL/well), using only the 60 inner wells to avoid any border effects. […] Then, the cells were incubated with 100 μL/well of medium and 20 μL/well of CellTiter 96 Aqueous One Solution reagent for 1–3 h. […] The background absorbance was measured in wells with only cell line medium and solution reagent. First, the average of the absorbance from the control wells was subtracted from all other absorbance values. Data were calculated as the percentage of total absorbance of treated cells/absorbance of non-treated cells. The GI50 values of the different compounds were determined using non-linear regression plots made with GraphPad Prism v5 software.

HDAC6 = molecular target: T1, HDAC6 (Homo sapiens, UniProt Q9UBN7); experiment: HDAC enzymatic assay, fluorescence-labeled substrate; assay type: biochemical; conditions: read-out: HDAC6 IC50
T1 sequence (Q9UBN7 1-1215): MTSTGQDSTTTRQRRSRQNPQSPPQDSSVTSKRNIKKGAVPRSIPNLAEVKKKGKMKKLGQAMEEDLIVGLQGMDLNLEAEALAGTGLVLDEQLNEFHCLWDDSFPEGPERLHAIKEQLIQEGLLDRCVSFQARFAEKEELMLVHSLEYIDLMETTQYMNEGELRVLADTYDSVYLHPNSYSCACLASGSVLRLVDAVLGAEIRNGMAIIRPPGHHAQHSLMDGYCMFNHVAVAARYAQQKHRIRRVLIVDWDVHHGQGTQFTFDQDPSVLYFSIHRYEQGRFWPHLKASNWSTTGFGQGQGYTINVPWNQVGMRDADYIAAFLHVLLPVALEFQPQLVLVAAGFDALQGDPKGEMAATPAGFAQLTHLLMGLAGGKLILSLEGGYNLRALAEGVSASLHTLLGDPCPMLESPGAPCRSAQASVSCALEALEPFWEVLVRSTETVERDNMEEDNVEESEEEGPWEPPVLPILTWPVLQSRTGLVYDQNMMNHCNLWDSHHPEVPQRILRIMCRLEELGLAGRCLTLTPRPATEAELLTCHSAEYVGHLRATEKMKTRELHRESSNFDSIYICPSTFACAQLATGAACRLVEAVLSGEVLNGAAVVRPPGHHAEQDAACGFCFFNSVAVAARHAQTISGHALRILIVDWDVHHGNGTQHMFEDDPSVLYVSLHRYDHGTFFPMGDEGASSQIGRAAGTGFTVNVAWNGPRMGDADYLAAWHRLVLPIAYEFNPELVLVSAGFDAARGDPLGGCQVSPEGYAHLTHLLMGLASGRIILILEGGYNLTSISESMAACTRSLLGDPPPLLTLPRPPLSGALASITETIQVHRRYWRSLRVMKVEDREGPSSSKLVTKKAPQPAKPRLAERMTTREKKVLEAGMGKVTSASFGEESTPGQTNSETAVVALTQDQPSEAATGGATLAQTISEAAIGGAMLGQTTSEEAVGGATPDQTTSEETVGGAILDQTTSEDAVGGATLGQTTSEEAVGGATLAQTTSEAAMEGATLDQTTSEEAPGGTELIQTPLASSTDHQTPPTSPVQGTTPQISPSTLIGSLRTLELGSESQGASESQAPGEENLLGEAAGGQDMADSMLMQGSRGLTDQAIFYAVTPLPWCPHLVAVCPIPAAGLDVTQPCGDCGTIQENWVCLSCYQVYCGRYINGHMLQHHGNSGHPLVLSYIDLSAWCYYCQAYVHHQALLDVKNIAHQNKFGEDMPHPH

MV4-11 [3] = experiment: Differentiation-apoptosis assay, CD11b / annexin-V / Sytox Green / myeloid markers flow cytometry; assay type: cell-based, human; parameters: CD11b levels: unit not given here; conditions: MV4-11, daily treatment for 48 h, replicates 1-3 (Suppl. Fig. 9A)
Protocol: (§2) Next, the cells were washed twice with phosphate-buffered saline (PBS) and resuspended in 1X Binding Buffer at a concentration of 1 × 10^6 cells/mL. An 8-µL aliquot of APC-CD11b (BD Pharmingen, Franklin Lakes, NJ, USA) and 1 µL of FITC annexin-V (AV) (BD Pharmingen, Franklin Lakes, NJ, USA) antibodies were added and incubated for 15 min at room temperature in the dark. Finally, after the addition of 400 µL of 1X Binding Buffer to each tube, samples were collected on a BD FACSCanto flow cytometer (Becton Dickinson, San Jose, CA, USA) and analyzed using FlowJo software.
(§3) For the rest of experiments, the mix of antibodies (2 µL of BV786-CD13, Cat No, 744748 BD; 1 µL of diluted 1:10 antibody of PB-HLADR, Cat No 307633, Biolegend; 5 µL of APCH7-CD14, Cat No 641394, BD) was added to 10 µL of Brilliant Stain Buffer Plus (Becton Dickinson, San Jose, CA, USA). Then, 1 million cells (volume of 250 µL) were added and incubated for 30 min at room temperature in darkness. After 10 min incubation at room temperature with 2 mL of FACSLysing 1X, cells were centrifuged at 540 g for 5 min and washed twice with FACSBuffer. Finally, after centrifugation at 540 g for 5 min cells were resuspended in FACSBuffer.

MOLM-13 [4] = experiment: as above; assay type: cell-based, human; parameters: CD11b levels: unit not given here; conditions: MOLM-13, daily treatment for 48 h, replicates 1-3 (Suppl. Fig. 9A)
Protocol: as §2, §3

HL-60 [5] = experiment: q-RT-PCR of MYC, CDKN2A, CDKN1A, GATA2, TAL1, CEBPA, SPI1; assay type: cell-based, human; conditions: HL-60 treated daily for 48 h; replicates (Fig 6F)
Protocol: (§4) RNA was extracted with TRIzol Reagent (Invitrogen) according to the manufacturer’s instructions. First, cDNA was synthesized from 1 µg of total RNA using the PrimeScript RT reagent Kit (Perfect Real Time) (Cat No RR037A, TaKaRa) following the manufacturer’s instructions. The quality of cDNA was checked by a multiplex PCR that amplifies PBGD, ABL, BCR and β2-MG genes. […] The following program conditions were used for the q-PCR: 50 °C for 2 min, 95 °C for 60 s following by 45 cycles at 95 °C for 15 s and 60 °C for 60 s; melting program, one cycle at 95 °C for 15 s, 40 °C for 60 s, and 95 °C for 15 s. The relative expression of each gene was quantified by the […] method using the gene GUS as an endogenous control. The sequence of primers used can be found in Supplementary Table 10.

ML-2 [6] = experiment: as above; assay type: cell-based, human; conditions: ML-2 treated daily for 48 h; replicates (Fig 6G)
Protocol: as §4

MV4-11 [7] = experiment: as above; assay type: cell-based, human; conditions: MV4-11, daily treatment for 48 h, replicates 1-3
Protocol: as §4

MOLM-13 [8] = experiment: as above; assay type: cell-based, human; conditions: MOLM-13, daily treatment for 48 h, replicates 1-3
Protocol: as §4

ML-2 [9] = experiment: Cell proliferation assay: GI50; assay type: cell-based, human
Protocol: as §1

MV4-11 [10] = experiment: Cell proliferation assay: GI50; assay type: cell-based, human
Protocol: as §1

MOLM-13 [11] = experiment: Cell proliferation assay: GI50; assay type: cell-based, human
Protocol: as §1

ML-2 [12] = experiment: Differentiation-apoptosis assay, CD11b / annexin-V / Sytox Green / myeloid markers flow cytometry; assay type: cell-based, human; parameters: CD11b levels: unit not given here; conditions: ML-2 treated daily for 48 h; replicates (Fig 6E)
Protocol: as §2, §3

[13] = HL-60, daily 25% GI50, 48 h, mean of three

- pIC50 (HDAC1): < 4.70
- GI50 (HL-60 [2]; 48 h, read-out: HL-60 GI50): > 10 µM
- pIC50 (HDAC6): < 4.70
Compound: COc1cc2c(NCC3CCN(C)CC3)cc(-c3ccc(C)o3)nc2cc1OCCCN1CCCC1 [CM-579]
- Annexin V (%) Replicate 1 (HL-60 [1]; HL-60, daily 25% GI50, 48 h): 0.00%
- Annexin V (%) Replicate 2 (HL-60 [1]; HL-60, daily 25% GI50, 48 h): 0.00%
- Annexin V (%) Replicate 3 (HL-60 [1]; HL-60, daily 25% GI50, 48 h): 0.00%
- CD11b (%) Replicate 1 (HL-60 [1]; HL-60, daily 25% GI50, 48 h): 0.00%
- CD11b (%) Replicate 2 (HL-60 [1]; HL-60, daily 25% GI50, 48 h): 0.00%
- CD11b (%) Replicate 3 (HL-60 [1]; HL-60, daily 25% GI50, 48 h): 0.00%
- Annexin V + (%) (HL-60 [1]; [13]): 0.00%
- CD11b+ (%) (HL-60 [1]; [13]): 0.00%

Compound: Cc1sc2c(c1C)C(c1ccc(Cl)cc1)=N[C@@H](CC(=O)OC(C)(C)C)c1nnc(C)n1-2 [JQ1, reference compound]
- CD11b levels (HL-60 [1]; HL-60 treated daily for 48 h, replicates (Fig 6D)): 14.4 and 10.4 and 18.9
- CD11b levels (MV4-11 [3]): 12.1 and 10.6 and 16.7
- CD11b levels (MOLM-13 [4]): 22.1 and 20.7 and 18.1
- q-PCR of CEBPA (HL-60 [5]): -0.3248 log10 (2-ΔΔCt) and -0.277 log10 (2-ΔΔCt) and -0.3773 log10 (2-ΔΔCt)
- q-PCR of GATA2 (HL-60 [5]): -0.4169 log10 (2-ΔΔCt) and -0.4604 log10 (2-ΔΔCt) and -0.5063 log10 (2-ΔΔCt)
- q-PCR of MYC (HL-60 [5]): -1.0533 log10 (2-ΔΔCt) and -1.072 log10 (2-ΔΔCt) and -1.203 log10 (2-ΔΔCt)
- q-PCR of SPI1 (HL-60 [5]): 0.1686 log10 (2-ΔΔCt) and 0.1558 log10 (2-ΔΔCt) and 0.1908 log10 (2-ΔΔCt)
- q-PCR of TAL1 (HL-60 [5]): 0.3073 log10 (2-ΔΔCt)
- q-PCR of CEBPA (ML-2 [6]): 0.003145 log10 (2-ΔΔCt) and -0.05186 log10 (2-ΔΔCt) and 0.00217 log10 (2-ΔΔCt)
- q-PCR of GATA2 (ML-2 [6]): -0.7948 log10 (2-ΔΔCt) and -0.4733 log10 (2-ΔΔCt) and -0.5146 log10 (2-ΔΔCt)
- q-PCR of MYC (ML-2 [6]): -1.0744 log10 (2-ΔΔCt) and -1.048 log10 (2-ΔΔCt) and -1.0236 log10 (2-ΔΔCt)
- q-PCR of SPI1 (ML-2 [6]): -0.3978 log10 (2-ΔΔCt) and -0.4936 log10 (2-ΔΔCt) and -0.3253 log10 (2-ΔΔCt)
- q-PCR of TAL1 (ML-2 [6]): -0.9571 log10 (2-ΔΔCt) and -0.8702 log10 (2-ΔΔCt) and -0.7161 log10 (2-ΔΔCt)
- q-PCR of CEBPA, log10 (2-ΔΔCt) (MV4-11 [7]): 0.0684 and 0.023 and -0.05782
- q-PCR of GATA2, log10 (2-ΔΔCt) (MV4-11 [7]): -0.3858 and -0.3755 and -0.4115
- q-PCR of MYC, log10 (2-ΔΔCt) (MV4-11 [7]): -0.6192 and -0.5693 and -0.4576
- q-PCR of SPI1, log10 (2-ΔΔCt) (MV4-11 [7]): -0.1789 and -0.2041 and -0.25
- q-PCR of TAL1, log10 (2-ΔΔCt) (MV4-11 [7]): -1.126 and -0.6585 and -1.208
- q-PCR of CEBPA, log10 (2-ΔΔCt) (MOLM-13 [8]): -0.258 and -0.1482 and -0.3669
- q-PCR of GATA2, log10 (2-ΔΔCt) (MOLM-13 [8]): -0.2598 and -0.4259 and -0.3898
- q-PCR of MYC, log10 (2-ΔΔCt) (MOLM-13 [8]): -0.7137 and -0.6985 and -0.8216
- q-PCR of SPI1, log10 (2-ΔΔCt) (MOLM-13 [8]): -0.9325 and -0.8224 and -0.9326
- q-PCR of TAL1, log10 (2-ΔΔCt) (MOLM-13 [8]): -0.4726 and -0.5813 and -0.6816
- GI50 (HL-60 [2]; HL-60, 48 h, read-out: GI50): > 10 µM
- GI50 (HL-60 [2]; HL-60, replicates 1-3, µM for the other inhibitors, read-out: GI50): > 10 µM
- GI50 (ML-2 [9]; ML-2, 48 h): > 10 µM
- GI50 (ML-2 [9]; ML-2, replicates 1-3, µM for the other inhibitors): > 10 µM
- GI50 (MV4-11 [10]; MV4-11, 48 h): > 10 µM
- GI50 (MV4-11 [10]; MV4-11, replicates 1-3, µM for the other inhibitors): > 10 µM
- GI50 (MOLM-13 [11]; MOLM-13, 48 h): > 10 µM
- GI50 (MOLM-13 [11]; MOLM-13, replicates 1-3, µM for the other inhibitors): > 10 µM
- CD11b levels (ML-2 [12]): 12.1 and 9.5 and 15.4
